Columns and labels:
Test in all cases: relative viability (nuclei count vs DMSO), 5 days (fraction); higher = more cells survive
[1] = compound: CC(C)C[C@H](NC(=O)[C@H](CCc1ccccc1)NC(=O)CN1CCOCC1)C(=O)N[C@@H](Cc1ccccc1)C(=O)N[C@@H](CC(C)C)C(=O)[C@@]1(C)CO1 [Carfilzomib] + Cc1nc(NC(=O)N2CCC[C@H]2C(N)=O)sc1-c1ccnc(C(C)(C)C(F)(F)F)c1 [Alpelisib] (partner 2 µM)
Procedure, shortened: (§1)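 Each reported value is a median over duplicate plates. It expresses relative viability: treated-well nuclei count divided by vehicle-well nuclei count. Lung cancer cell lines in 1536-well plates were dosed by pin tool a day after seeding, alone with one drug or with a fixed anchor-drug dose plus five library-drug doses (not always all listed) in √10 steps, and nuclei were counted after 5 days.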

[2] = compound: C[C@@H](Oc1cc(-c2cnn(C3CCNCC3)c2)cnc1N)c1c(Cl)ccc(F)c1Cl [Crizotinib] + CC(=O)c1c(C)c2cnc(Nc3ccc(N4CCNCC4)cn3)nc2n(C2CCCC2)c1=O [Palbociclib] (partner 0.5 µM)
Procedure, shortened: as §1

[3] = compound: C[C@@H](Oc1cc(-c2cnn(C3CCNCC3)c2)cnc1N)c1c(Cl)ccc(F)c1Cl [Crizotinib] + Nc1nc2[nH]cc(CCc3ccc(C(=O)N[C@@H](CCC(=O)O)C(=O)O)cc3)c2c(=O)[nH]1 [Pemetrexed] (partner 0.2 µM)
Procedure, shortened: as §1

[4] = compound: O=C(c1cc(Cc2n[nH]c(=O)c3ccccc23)ccc1F)N1CCN(C(=O)C2CC2)CC1 [Olaparib] + Nc1nc2[nH]cc(CCc3ccc(C(=O)N[C@@H](CCC(=O)O)C(=O)O)cc3)c2c(=O)[nH]1 [Pemetrexed] (partner 0.2 µM)
Procedure, shortened: as §1

Cell Line | relative viability ([1]; first compound 0.001 µM) | relative viability ([1]; first compound 0.003162 µM) | relative viability ([1]; first compound 0.01 µM) | relative viability ([1]; first compound 0.03162 µM) | relative viability ([1]; first compound 0.1 µM) | relative viability ([2]; first compound 0.01 µM) | relative viability ([2]; first compound 0.03162 µM) | relative viability ([2]; first compound 0.1 µM) | relative viability ([2]; first compound 0.3162 µM) | relative viability ([2]; first compound 1 µM) | relative viability ([3]; first compound 0.01 µM) | relative viability ([3]; first compound 0.03162 µM) | relative viability ([3]; first compound 0.1 µM) | relative viability ([3]; first compound 0.3162 µM) | relative viability ([3]; first compound 1 µM) | relative viability ([4]; first compound 0.08 µM) | relative viability ([4]; first compound 0.253 µM) | relative viability ([4]; first compound 2.53 µM) | relative viability ([4]; first compound 8 µM)
RERF-LC-KJ | 0.847 | 0.873 | 0.842 | 0.645 | 0.227 | 0.98 | 1.12 | 0.925 | 0.991 | 1.06 | 0.475 | 0.459 | 0.461 | 0.473 | 0.517 | 0.527 | 0.477 | 0.481 | 0.449
SK-LU-1 | 1.05 | 1 | 0.712 | 0.182 | 0.143 | 0.391 | 0.359 | 0.38 | 0.361 | 0.436 | 0.887 | 0.911 | 0.815 | 1.02 | 0.922 | 1.12 | 0.865 | 0.866 | 0.635
SK-MES-1 | 0.867 | 1.04 | 0.992 | 0.782 | 0.162 | 0.295 | 0.318 | 0.341 | 0.312 | 0.302 | 0.879 | 0.928 | 0.927 | – | 0.924 | 0.982 | 0.91 | 0.853 | 0.768
SW 1573 | 0.731 | 0.835 | 0.642 | 0.19 | 0.096 | 0.373 | 0.368 | 0.39 | 0.417 | 0.411 | – | 0.797 | 0.749 | 0.676 | 0.908 | 0.903 | 0.899 | 0.779 | 0.597
UMC-11 | 1.01 | 0.976 | 0.947 | 1.03 | 0.152 | 0.329 | 0.336 | 0.307 | – | 0.398 | 0.864 | 0.76 | 0.732 | 0.814 | 0.841 | 0.806 | 0.683 | 0.691 | 0.537

— the supplement of paper PMC10307832
